The text below walks through data of patent US20220339135A1, “COMPOSITIONS AND METHODS FOR MODULATING AN INFLAMMATORY RESPONSE” (Enzychem Lifesciences Corporation, priority 2019, published 2022).

The test system of test [1] is intracellular ROS in BMDMs and THP-1 cells. The test is described as follows: Gemcitabine-induced intracellular ROS measurement. It is filed as cell-based. Particulars: gemcitabine 10 μg/mL 3 h, dose-dependent. As to the method:
A total of 1×10^6 BMDMs and THP-1 were seeded, cultured, and subsequently exposed to various concentrations of PLAG with gemcitabine (10 μg/mL) for 3 h. The cells were then incubated with the ROS-sensitive probe CM-H2DCFDA (Invitrogen™) for 30 min at 37° C. in the dark. After incubation, the cells were washed 3 times with PBS and immediately analyzed using FACS verse (BD biosciences) with an excitation/emission peak at 495/527 nm. A total of 10,000 cells were counted in each determination, and results presented are means±S.E. of three independent experiments. Intracellular ROS production was also measured with a confocal laser scanning microscope (Zeiss LSM 800, Oberkochen, Germany). After incubating CM-H2DCFDA as above, the cells were fixed with 4% paraformaldehyde for 30 min and washed 3 times with PBS before photographing. The excitation and emission wavelengths were identical as described above, and a minimum of 5 random fields was captured for each culture.

For test [2], the system named is skin erythema injury. Put plainly: Radiation-induced skin erythema in mice. The test is classed as in vivo. Particulars: 8Gy TBI, PLAG 250 mg/kg daily 17 days. The protocol:
9 weeks Balb/c mice were divided into two groups: 1) radiated group (8Gy of TBI by γ-ray) and 2) PLAG (250 mg/kg of PLAG daily for 17 days) administrated group with radiation (8Gy of TBI) (FIG. 38A).

Test [3] deals with ERK, p38 MAPK, JNK in THP-1 cells. Put plainly: Gemcitabine-induced phosphorylation of ERK, p38 MAPK, JNK, western blot. It is filed as cell-based, human. The protocol: Total cells were lysed on ice for 30 minutes in RIPA buffer composed of 50 mM Tris-HCl (pH 7.4), 150 mM NaCl, 2 mM EDTA, 1% NP-40, 0.5% sodium deoxycholate, 0.1% SDS, 1 mM phenylmethylsulfonyl fluoride (PMSF), 10 mM sodium fluoride, 2 mM sodium pyrophosphate, 10 mM β-glycerophosphate, 10 mM sodium orthovanadate. Membrane-and-cytoplasmic protein fractions of cultured cells were obtained with Mem-PER Plus Membrane Protein Extraction Kit (Thermo Scientific, MA, USA) according to the manufacturer's instructions. The lysates were centrifuged at 13,000 rpm for 20 minutes at 4° C. and protein concentrations were determined using the Bradford assay (Bio-Rad Laboratories). Denatured samples were mixed with a 5×SDS-PAGE loading buffer and heated to 100° C. for 15 min. The samples were separated on the 10% of SDS-PAGE gel and transferred to polyvinylidene difluoride (PVDF) membranes (Merck Millipore Corporation, MA, USA). Membranes were blocked with 5% non-fat milk in PBS (10 mM Tris-HCl, pH7.5, 150 mM NaCl) for 1 h and probed with primary antibodies against ERK1/2, phospho-ERK1/2, P38, phospho-P38, SAPK/JNK, phospho-SAPK/JNK, Na, K-ATPase, α-Tubulin, and β-actin from Cell Signaling Technology (MA, USA), Rac1 from Merck Millipore Corporation), p47phox and phospho-p47phox from Invitrogen, adenosine receptor A1 from Abcam, β arrestin-1 from Santa Cruz Technology for overnight at 4° C. The blots were washed and incubated with appropriate secondary antibodies and visualized using Pierce ECL Western Blotting Substrate (Thermo Scientific).

In test [4] the test system is intracellular lysosomes of Raw264.7 cells. The test is described as follows: LPS-induced lysosomal activity (LYSO-ID). It is filed as cell-based. The conditions noted are these: LPS/PLAG treatment. The protocol: Raw264.7 cells were divided into two groups: 1) LPS treated group and 2) LPS/PLAG treated group. For the LPS treated group, cells were treated with 100 μg/ml of DMSO (as solvent control) for 1 hour and treated with LPS (100 ng/ml) for 15, 30, 60, and 120 minutes. For LPS/PLAG treated group, cells were treated with PLAG (100 μg/ml) for 1 hour and treated with LPS (100 ng/ml) for 15, 30, 60, and 120 minutes. Cells were then fixed and stained using rat anti-TLR4/MD2 antibody with Alexa488-conjugated anti-rat IgG secondary antibody. These were analyzed by confocal microscopy. Raw264.7 cells stimulated under the same conditions were fixed, permeabilized, and stained with CM-H2DCFDA, the LYSO-ID® Lysosomal Detection Kit and rabbit anti-p47phox. Confocal microscopy was performed; all data shown represent one experiment performed in triplicate.

Test [5] concerns MIP2 and CXCL8 in BMDM and THP-1. Put plainly: Gemcitabine-induced MIP-2 / CXCL8, RT-PCR and ELISA. The test is classed as cell-based. The conditions noted are these: dose-dependent. The text has this: Total RNA was extracted using the Total RNA Extraction Solution (Favorgen, Taiwan), according to the manufacturer's instructions. This RNA was used in reverse transcription reactions with oligo-dT primers and M-MLV RT reagents (Promega, Madison, Wis., USA), according to the manufacturer's instructions. For RT-PCR, the synthesized cDNA was mixed with 2×PCR Master Mix (Solgent, Daejeon, Republic of Korea) and 10 pmol specific PCR primer pair following the manufacturer's protocol. […] An SYBR Green kit (Applied Biosystems, Foster City, Calif., USA) was used for real-time PCR (qPCR) analysis of cDNA according to the manufacturer's instructions. […] The relative expression levels of target genes were calculated by the 2^-ΔΔCT relative quantification method. […] The concentration of MIP-2 was measured using ELISA kits for MIP-2 (R&D Systems, Minneapolis, Minn., USA according to the manufacturers' instructions. Cytokine levels were estimated by interpolation from a standard curve generated using an ELISA reader (Molecular Devices) at 450 nm. Total RNAs from cells were isolated using TRIzol® reagent (Invitrogen, CA, USA) according to the manufacturer's instructions. RT-PCR was performed using PCR reagent (Bioassay, Daejeon, South Korea). […]
Background: In an ELISA, binding on a coated surface is turned into a signal by an enzyme label.

SMILES strings stand for the structures.

For the molecule `CCCCC/C=C\C/C=C\CCCCCCCC(=O)OC(COC(C)=O)COC(=O)CCCCCCCCCCCCCCC` (racemic) [PLAG, 1-palmitoyl-2-linoleoyl-3-acetylglycerol], in test [1], the “gemcitabine-induced intracellular ROS production” value is given as “effectively reduced”. Also, the “erythema on mouse foot and tail” value in test [2] is “significantly weak or no erythema”. Besides, in test [3], the “gemcitabine-induced phosphorylation of ERK and p38 MAPK” value was “dose-dependently decreased”; the “gemcitabine-induced phosphorylation of JNK” value is “did not”. In addition, in test [4], the lysosomal activity initiated amounted to 15 min and the “return to homeostatic levels of lysosomal activity” value stood at 60 min. Besides, the “gemcitabine-induced chemokines MIP2 and CXCL8, transcriptional and secreted protein level” value in test [5] is “effectively reduced”.
